According to article PMC7366380, “Discovery of a Potent and Selective Covalent Inhibitor and Activity-Based Probe for the Deubiquitylating Enzyme UCHL1, with Antifibrotic Activity” (Journal of the American Chemical Society, 2020):
Several values for one entry are separate records, joined by “and”; a condition that tells them apart may be missing. Equal values may be shown once.

Experiments:
Assay in all cases: In-cell proteome-wide competitive ABPP, HEK293: other DUBs and proteins
[1] = target: T1, DUBs and other proteins in HEK293 cells (Homo sapiens, UniProt P45974); conditions: replicates A-C; for Log2 reporter intensity values: USP5: competition with ABP 2, DMSO substract (FC); for Log2 reporter intensity values: USP5, DMSO subtracted
T1 sequence (P45974 1-858): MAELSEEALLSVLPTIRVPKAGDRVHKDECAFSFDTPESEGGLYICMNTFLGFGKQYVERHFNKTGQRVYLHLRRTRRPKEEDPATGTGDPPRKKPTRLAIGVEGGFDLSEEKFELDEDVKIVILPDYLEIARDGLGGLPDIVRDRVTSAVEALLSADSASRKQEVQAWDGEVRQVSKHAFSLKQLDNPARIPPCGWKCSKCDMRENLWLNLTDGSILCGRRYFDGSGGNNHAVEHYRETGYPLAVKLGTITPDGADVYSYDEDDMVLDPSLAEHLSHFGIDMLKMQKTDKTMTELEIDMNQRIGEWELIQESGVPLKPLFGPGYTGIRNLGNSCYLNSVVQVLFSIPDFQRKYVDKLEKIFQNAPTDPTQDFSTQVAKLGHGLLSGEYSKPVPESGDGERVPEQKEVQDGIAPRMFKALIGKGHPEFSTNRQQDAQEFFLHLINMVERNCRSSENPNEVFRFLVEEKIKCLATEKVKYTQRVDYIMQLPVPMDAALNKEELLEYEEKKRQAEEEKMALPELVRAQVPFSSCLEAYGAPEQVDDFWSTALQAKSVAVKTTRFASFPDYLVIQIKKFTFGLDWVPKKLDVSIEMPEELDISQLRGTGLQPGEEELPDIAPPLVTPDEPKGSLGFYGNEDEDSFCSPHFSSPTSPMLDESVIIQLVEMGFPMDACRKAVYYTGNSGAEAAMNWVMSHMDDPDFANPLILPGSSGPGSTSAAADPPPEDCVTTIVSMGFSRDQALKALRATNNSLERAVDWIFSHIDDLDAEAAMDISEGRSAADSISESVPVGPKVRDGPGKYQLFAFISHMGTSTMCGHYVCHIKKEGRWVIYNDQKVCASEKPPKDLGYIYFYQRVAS

[2] = target: DUBs and other proteins in HEK293 cells (Homo sapiens, UniProt Q14694); conditions: replicates A-C; for Log2 reporter intensity values: USP10: competition with ABP 2, DMSO substract (FC); for Log2 reporter intensity values: USP10, DMSO subtracted
[3] = target: T2, DUBs and other proteins in HEK293 cells (Homo sapiens, UniProt P40818); conditions: for Log2 reporter intensity values: USP8: competition with ABP 2, DMSO substract (FC), replicates A-B; for Log2 reporter intensity values: USP8, DMSO subtracted
T2 sequence (P40818 1-1118): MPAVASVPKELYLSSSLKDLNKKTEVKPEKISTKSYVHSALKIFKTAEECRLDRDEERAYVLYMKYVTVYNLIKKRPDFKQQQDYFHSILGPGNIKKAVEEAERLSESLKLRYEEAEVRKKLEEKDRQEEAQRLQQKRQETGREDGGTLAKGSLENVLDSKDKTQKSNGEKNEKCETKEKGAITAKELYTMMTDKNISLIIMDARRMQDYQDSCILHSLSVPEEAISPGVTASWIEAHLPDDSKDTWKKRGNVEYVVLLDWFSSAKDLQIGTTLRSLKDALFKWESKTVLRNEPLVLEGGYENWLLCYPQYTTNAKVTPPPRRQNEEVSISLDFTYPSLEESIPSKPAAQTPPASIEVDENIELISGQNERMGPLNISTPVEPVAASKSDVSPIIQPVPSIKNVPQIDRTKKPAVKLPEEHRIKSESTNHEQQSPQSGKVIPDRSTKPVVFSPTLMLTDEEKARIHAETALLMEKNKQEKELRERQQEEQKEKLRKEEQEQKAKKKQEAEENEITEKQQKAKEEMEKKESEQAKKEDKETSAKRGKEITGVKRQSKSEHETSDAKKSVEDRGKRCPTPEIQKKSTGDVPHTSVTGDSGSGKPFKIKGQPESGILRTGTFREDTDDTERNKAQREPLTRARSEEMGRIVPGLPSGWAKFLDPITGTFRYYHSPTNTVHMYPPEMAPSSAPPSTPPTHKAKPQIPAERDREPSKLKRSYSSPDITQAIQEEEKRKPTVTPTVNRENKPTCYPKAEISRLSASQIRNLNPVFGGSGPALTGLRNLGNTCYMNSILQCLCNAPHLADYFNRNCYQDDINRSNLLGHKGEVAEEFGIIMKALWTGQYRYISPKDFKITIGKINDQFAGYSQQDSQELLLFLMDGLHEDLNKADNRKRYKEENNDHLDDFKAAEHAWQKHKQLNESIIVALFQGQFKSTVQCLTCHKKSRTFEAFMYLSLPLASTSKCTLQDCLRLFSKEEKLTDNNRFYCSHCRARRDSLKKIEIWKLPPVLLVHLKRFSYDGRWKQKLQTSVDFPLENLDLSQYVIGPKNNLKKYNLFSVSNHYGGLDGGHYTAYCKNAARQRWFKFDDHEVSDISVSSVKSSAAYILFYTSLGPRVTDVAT

[4] = target: T3, DUBs and other proteins in HEK293 cells (Homo sapiens, UniProt P51665); conditions: replicates A-C; for Log2 reporter intensity values: PSMD7: competition with ABP 2, DMSO substract (FC); for Log2 reporter intensity values: PSMD7, DMSO subtracted
T3 sequence (P51665 1-324): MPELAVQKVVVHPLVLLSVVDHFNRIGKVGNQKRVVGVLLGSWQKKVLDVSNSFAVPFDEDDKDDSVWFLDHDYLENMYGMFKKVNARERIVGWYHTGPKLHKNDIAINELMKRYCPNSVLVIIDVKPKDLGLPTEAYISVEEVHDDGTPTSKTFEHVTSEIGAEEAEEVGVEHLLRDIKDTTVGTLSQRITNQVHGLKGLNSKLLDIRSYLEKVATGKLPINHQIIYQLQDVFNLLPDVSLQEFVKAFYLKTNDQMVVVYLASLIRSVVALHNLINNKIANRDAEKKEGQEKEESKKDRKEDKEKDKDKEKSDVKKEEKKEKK

DUBs and other proteins in HEK293 cells (Homo sapiens, UniProt Q14694), sequence (Q14694 whole entry): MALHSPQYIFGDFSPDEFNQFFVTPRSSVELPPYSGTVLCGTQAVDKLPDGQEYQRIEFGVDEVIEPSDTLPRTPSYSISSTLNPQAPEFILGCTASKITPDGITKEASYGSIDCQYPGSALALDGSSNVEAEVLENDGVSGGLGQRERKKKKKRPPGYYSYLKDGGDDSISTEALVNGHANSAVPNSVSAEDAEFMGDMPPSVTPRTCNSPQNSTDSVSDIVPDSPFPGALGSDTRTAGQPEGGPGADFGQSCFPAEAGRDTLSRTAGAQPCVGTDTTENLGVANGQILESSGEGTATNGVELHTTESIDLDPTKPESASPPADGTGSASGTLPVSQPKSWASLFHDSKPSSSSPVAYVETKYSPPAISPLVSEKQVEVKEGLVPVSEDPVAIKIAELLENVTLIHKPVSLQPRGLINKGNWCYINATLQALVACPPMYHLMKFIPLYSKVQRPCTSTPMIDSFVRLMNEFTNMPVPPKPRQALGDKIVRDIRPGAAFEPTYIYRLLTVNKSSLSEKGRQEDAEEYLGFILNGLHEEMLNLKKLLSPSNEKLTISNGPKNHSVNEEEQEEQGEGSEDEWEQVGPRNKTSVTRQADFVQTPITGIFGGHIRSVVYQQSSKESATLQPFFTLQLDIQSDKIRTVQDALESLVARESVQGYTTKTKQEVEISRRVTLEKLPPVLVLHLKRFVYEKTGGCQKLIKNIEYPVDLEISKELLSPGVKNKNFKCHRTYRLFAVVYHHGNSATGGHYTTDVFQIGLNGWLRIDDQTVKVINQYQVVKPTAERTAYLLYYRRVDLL

Log2 reporter intensity values: USP5 ([1]; 3 at 1 μM): 0.9394 and 0.9901 and 0.9848
Log2 reporter intensity values: USP5 ([1]; 3 at 4 μM): 1.005 and 1.031 and 1.063
Log2 reporter intensity values ([1]; 3_1 μM): -0.06093 and -0.01022 and -0.01553
Log2 reporter intensity values ([1]; 3_4 μM): 0.004396 and 0.03114 and 0.06231
Log2 reporter intensity values ([1]; 3 at 1 μM): -0.0902 and -0.01435 and -0.02211
Log2 reporter intensity values ([1]; 3 at 4 μM): 0.006795 and 0.04469 and 0.08765
Log2 reporter intensity values: USP10 ([2]; 3 at 1 μM): 0.9243 and 0.9306 and 0.9846
Log2 reporter intensity values: USP10 ([2]; 3 at 4 μM): 0.9265 and 0.935 and 0.9597
Log2 reporter intensity values ([2]; 3_1 μM): -0.07662 and -0.07034 and -0.01633
Log2 reporter intensity values ([2]; 3_4 μM): -0.07444 and -0.066 and -0.04125
Log2 reporter intensity values ([2]; 3 at 1 μM): -0.1135 and -0.1037 and -0.02233
Log2 reporter intensity values ([2]; 3 at 4 μM): -0.1101 and -0.09701 and -0.05932
Log2 reporter intensity values: USP8 ([3]; 3 at 1 μM): 0.95 and 1.134
Log2 reporter intensity values: USP8 ([3]; 3 at 4 μM): 0.8355 and 0.9159
Log2 reporter intensity values ([3]; 3_1 μM, replicates A-B (C NaN)): -0.05241 and 0.1313
Log2 reporter intensity values ([3]; 3_4 μM, replicates A-B (C NaN)): -0.167 and -0.08651
Log2 reporter intensity values ([3]; 3 at 1 μM, replicates A-C): -0.07394 and 0.1811
Log2 reporter intensity values ([3]; 3 at 4 μM, replicates A-C): -0.2593 and -0.1267
Log2 reporter intensity values: PSMD7 ([4]; 3 at 1 μM): 1.2 and 1.081 and 1.198
Log2 reporter intensity values: PSMD7 ([4]; 3 at 4 μM): 1.083 and 1.233 and 0.9957
Log2 reporter intensity values ([4]; 3_1 μM): 0.1973 and 0.07834 and 0.1956
Log2 reporter intensity values ([4]; 3_4 μM): 0.08024 and 0.2301 and -0.006858
Log2 reporter intensity values ([4]; 3 at 1 μM): 0.2629 and 0.1122 and 0.2608
Log2 reporter intensity values ([4]; 3 at 4 μM): 0.1148 and 0.3017 and -0.006207
SMILES: N#CN1CCC[C@@H]1C(=O)N1CCc2c(-c3c[nH]c4ncccc34)cccc21 [Compound 3]
